Assays:
[1] = target: SARS-CoV-2 3CL-protease (Severe acute respiratory syndrome coronavirus 2, UniProt P0DTD1); assay: SARS-CoV-2 3C-like (3CL) protease fluorescence assay (FRET); assay type: biochemical; conditions: read-out: FRET IC50
[2] = system: 229E human corona virus (hCoV); assay: 229E live virus assay (CPE, ATPlite readout in MRC-5 cells); assay type: cell-based, hCoV-229E; conditions: MOI 0.05, ATPlite readout, run in duplicate
[3] = Human coronavirus 229E, MRC5, hCoV-229E live virus

Q: With `CC(C)CC(C(=O)N1CC2(CC1C#N)C(=O)Nc1ccccc12)N(C)C(=O)C1CC1c1ccccc1` (stereo not shown) [Example 281] as the molecule, how does the IC50 [1] read?
A: Its IC50 is < 0.1 µM.

Q: And the EC50 ([2]; hCoV-229E live virus)?
A: The EC50 was < 0.1 µM.

Q: How did the IC50 [1] turn out when `CC(C)CC(C(=O)N1CC2(CC1C#N)C(=O)Nc1ccccc12)N(C)C(=O)c1nnn(-c2ccccc2)n1` (stereo not shown) [Example 287] was run?
A: Its IC50 is < 0.1 µM.

Q: What about the EC50 [2, 3] of the same molecule?
A: Its EC50 is < 0.1 µM.

Q: Which IC50 [1] does the source give for `CC(C)CC(C(=O)N1CC2(CC1C#N)C(=O)Nc1ccccc12)N(C)C(=O)c1cc(OC2CC2)c2nn(C3CC3)cc2c1` (stereo not shown) [Example 307] here?
A: Its IC50 is 0.1 to 1 µM.

Q: And the EC50 [2, 3]?
A: The EC50 was 0.1 to 1 µM.

Q: For `COc1cc(C(=O)N(C)C(CC(C)C)C(=O)N2CC3(CC2C#N)C(=O)Nc2ccccc23)cc2cn(C3CC3)nc12` (stereo not shown) [Example 308], which IC50 [1] is on record?
A: Its IC50 is < 0.1 µM.

Q: And the EC50 [2, 3]?
A: Its EC50 is 0.1 to 1 µM.

Q: With `CC(C)C[C@@H](C(=O)N1C[C@]2(C[C@H]1C#N)C(=O)Nc1ccccc12)N(C)C(=O)[C@H]1CCN(C(=O)C(F)(F)F)C1` [Example 346] as the molecule, how does the IC50 [1] read?
A: The IC50 was < 0.1 µM.

Q: What about the EC50 [2, 3] of the same molecule?
A: The EC50 was < 0.1 µM.

Q: How did the IC50 [1] turn out when `CC(C)CC(C(=O)N1CC2(CC1C#N)C(=O)Nc1ccccc12)N(C)C(=O)C1CCN(C(=O)C(F)(F)F)C1` (stereo not shown) [Example 347] was run?
A: Its IC50 is < 0.1 µM.

Q: And the EC50 ([2]; hCoV-229E live virus)?
A: Its EC50 is < 0.1 µM.

Q: How did the IC50 [1] turn out when `CN(C(=O)[C@@H](O)C(C)(C)C)[C@@H](CC1CC1)C(=O)N1C[C@]2(C[C@H]1C#N)C(=O)Nc1ccccc12` [Example 416] was run?
A: Its IC50 is < 0.1 µM.

Q: What about the EC50 [2, 3] of the same molecule?
A: Its EC50 is < 0.1 µM.

Q: For `C[C@H](OC(=O)N[C@@H](CC(C)(C)C)C(=O)N1C[C@]2(C[C@H]1C#N)C(=O)Nc1ccc(Cl)cc12)c1ccc(F)cc1` [Example 494], which IC50 [1] is on record?
A: The IC50 was < 0.1 µM.

Q: And the EC50 [2, 3]?
A: Its EC50 is 0.1 to 1 µM.

Reference: patent EP4001279A1, “NOVEL SPIROPYRROLIDINE DERIVED ANTIVIRAL AGENTS” (Enanta Pharmaceuticals, Inc., priority 2020, dated 2022)
